For experiment [1], the target named is T1, human orexin type 1 receptor (hOX1R) (Homo sapiens, UniProt O43613).
T1 construct: expressed in transfected cells
T1 sequence (O43613 1-425): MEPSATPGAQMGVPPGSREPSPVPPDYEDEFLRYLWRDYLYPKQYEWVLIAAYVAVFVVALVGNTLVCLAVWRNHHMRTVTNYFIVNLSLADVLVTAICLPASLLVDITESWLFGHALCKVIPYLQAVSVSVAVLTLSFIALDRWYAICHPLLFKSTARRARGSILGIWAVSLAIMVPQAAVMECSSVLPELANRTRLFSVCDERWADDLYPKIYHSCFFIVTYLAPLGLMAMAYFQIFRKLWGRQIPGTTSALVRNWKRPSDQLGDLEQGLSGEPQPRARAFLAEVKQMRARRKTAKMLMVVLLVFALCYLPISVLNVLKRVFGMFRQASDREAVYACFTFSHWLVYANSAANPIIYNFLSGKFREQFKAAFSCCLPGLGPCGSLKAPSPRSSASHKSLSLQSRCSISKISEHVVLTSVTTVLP
Description: Measurement of orexin type 1 receptor agonist activity (FLIPR TETRA intracellular Ca2+ fluorescence). As to conditions: CHO cells expressing hOX1R; agonist activity, Ca2+ fluorescence; read-out: hOX1 pEC50 (converted). It is filed as cell-based.

Experiment [2] has as its target T2, human orexin type 2 receptor (hOX2R) (Homo sapiens, UniProt O43614).
T2 construct: expressed in transfected cells
T2 sequence (O43614 1-444): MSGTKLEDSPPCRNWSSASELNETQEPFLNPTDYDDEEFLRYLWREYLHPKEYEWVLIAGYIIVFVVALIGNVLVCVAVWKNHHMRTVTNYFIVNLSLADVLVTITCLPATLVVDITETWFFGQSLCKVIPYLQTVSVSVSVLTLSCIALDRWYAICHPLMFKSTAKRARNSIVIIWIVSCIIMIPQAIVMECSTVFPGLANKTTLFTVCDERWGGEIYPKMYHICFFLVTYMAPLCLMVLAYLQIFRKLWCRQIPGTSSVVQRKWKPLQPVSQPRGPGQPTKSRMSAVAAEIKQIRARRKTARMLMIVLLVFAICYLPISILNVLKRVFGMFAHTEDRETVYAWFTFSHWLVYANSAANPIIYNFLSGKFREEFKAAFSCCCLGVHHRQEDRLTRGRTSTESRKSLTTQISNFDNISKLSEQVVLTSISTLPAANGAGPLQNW
Nature of the experiment: Measurement of orexin type 2 receptor agonist activity (FLIPR TETRA intracellular Ca2+ fluorescence). The class given is cell-based. As to conditions: CHO cells expressing hOX2R; agonist activity, Ca2+ fluorescence; read-out: hOX2 pEC50 (converted).

Experiment [3] deals with OX2R. As to conditions: subcutaneous, cited from earlier work.
A further experiment deals with individuals with NT1. As to conditions: initial clinical studies; cited from earlier work.
In experiment [4] the target is T3, OX2R (Mus musculus, UniProt P58308).
T3 construct: host or cells: mice in vivo (WT, orexin ligand-deficient, NT1 model, OX2R-knockout)
T3 sequence (P58308 1-460): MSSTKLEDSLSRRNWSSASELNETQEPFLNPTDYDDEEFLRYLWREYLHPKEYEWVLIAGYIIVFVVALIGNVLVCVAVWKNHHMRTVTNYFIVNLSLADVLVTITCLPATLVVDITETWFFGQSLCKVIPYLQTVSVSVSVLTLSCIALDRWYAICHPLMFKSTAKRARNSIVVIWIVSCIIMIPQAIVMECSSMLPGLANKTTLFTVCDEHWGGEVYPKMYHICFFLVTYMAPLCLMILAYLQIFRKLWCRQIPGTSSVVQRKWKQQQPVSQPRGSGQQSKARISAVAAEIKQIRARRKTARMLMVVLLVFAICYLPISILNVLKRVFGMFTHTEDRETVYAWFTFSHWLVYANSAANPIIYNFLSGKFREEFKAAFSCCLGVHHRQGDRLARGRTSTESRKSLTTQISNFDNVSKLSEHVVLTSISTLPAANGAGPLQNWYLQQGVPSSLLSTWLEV
As to conditions: cited from earlier work.

Experiment [5] has as its system orexin-neuron ablated mice. As to conditions: ICV; cited from earlier work.

Read-outs that look alike come from different tables or passages of the source. Square brackets hold non-standard residues; d marks the D form. Ends that are not written are not given here. Peptide text beside a SMILES is read from it. Gly(NCH2CH2Ph) = O=C(O)CNCCc1ccccc1; PEG6 = NCCOCCOCCOCCOCCOCCOCCC(=O)O; Hyp = O=C(O)[C@@H]1C[C@@H](O)CN1; NMeN = CN[C@@H](CC(N)=O)C(=O)O; Aoc(2) = CCCCCC[C@H](N)C(=O)O; NMeL = CN[C@@H](CC(C)C)C(=O)O; Ahp(2) = CCCCC[C@H](N)C(=O)O; Phg = N[C@H](C(=O)O)c1ccccc1 Bounds are passed on as bounds.

For `CCCCC[C@H](NC(=O)[C@@H](NC(=O)[C@H](CC(C)C)NC(=O)[C@@H](NC(=O)CNC(=O)[C@@H](NC(=O)[C@H](C)NC(=O)[C@@H]1C[C@@H](O)CN1C(=O)[C@H](CC(N)=O)N(C)C(=O)CN(CCc1ccccc1)C(=O)[C@H](CCCNC(=N)N)NC(=O)CCOCCOCCOCCOCCOCCOCCN)c1ccccc1)[C@@H](C)CC)[C@@H](C)O)C(N)=O` [Peptide 30] (H-[PEG6]R[Gly(NCH2CH2Ph)][NMeN][Hyp]A[Phg]GILT[Ahp(2)]-NH2), the EC50 in experiment [1] is over 10 nM; in experiment [2], under 0.1 nM.

Consider `CCCCCC[C@H](NC(=O)[C@@H](NC(=O)[C@H](CC(C)C)N(C)C(=O)[C@@H](NC(=O)CNC(=O)[C@@H](NC(=O)[C@H](C)NC(=O)[C@@H]1C[C@@H](O)CN1C(=O)[C@H](CC(N)=O)N(C)C(=O)CN(CCc1ccccc1)C(=O)[C@H](CCCNC(=N)N)NC(=O)CCOCCOCCOCCOCCOCCOCCN)c1ccccc1)[C@@H](C)CC)[C@@H](C)O)C(N)=O` [Peptide 31] (H-[PEG6]R[Gly(NCH2CH2Ph)][NMeN][Hyp]A[Phg]GI[NMeL]T[Aoc(2)]-NH2), for which the values for the EC50 in experiment [1] and in experiment [2] were over 10 nM and under 0.1 nM, respectively.

Take `COC(=O)N1CCC[C@H](NS(C)(=O)=O)[C@@H]1CO[C@H]1CC[C@@H](c2ccccc2)CC1` [TAK-925]: the wakefulness result in the experiment with OX2R [3] (OX2R-knockout mice) was “not in OX2R-knockout mice”; with OX2R [3] (WT mice), “modestly increased wakefulness”; in the experiment on individuals with NT1 it was “substantial levels of increased wakefulness”. Also, in the experiment on individuals with NT1, the cataplexy result was “trends for decreasing cataplexy”.

As for `COc1ccc(-c2cccc(C(=O)N(C)C)c2)cc1S(=O)(=O)Nc1cccc(NCCNC(=O)c2ccccc2N(C)C)c1` [YNT-185], the “sleep-onset REM periods and cataplexy-like events” value on OX2R [4] (NT1 mouse model) is “decreases sleep-onset REM periods and cataplexy-like events”. Also, the wakefulness result at OX2R [4] (intraperitoneally or ICV, wild type (WT) and orexin ligand-deficient mice) was “modestly increases wakefulness”.

Take “orexin A (QPLPDCCRQKTCSCRLYELLHGAGNHAAGILTL; ends and bridges not checked; cysteine pairing not given here; UniProt O43612 34-66, looked up) [orexin A (OXA), orexin neuropeptide cleaved from prepro-orexin]”: in experiment [5], the cataplexy-like behavior entry is “decreases cataplexy-like behavior” and the time spent awake entry is recorded as “increase time spent awake”.

(Values after US20240360175A1, “PEPTIDE DERIVATIVES AND RELATED USES AS OREXIN AGONISTS” (Centessa Pharmaceuticals (UK) Limited, priority 2021, published 2024).)
